Measured values taken from paper PMC8954523 (Pharmaceutics, 2022).
In brackets after ≈: the same amount, converted by molar mass. Where two headings read alike, the source gives them in different places.

Columns and labels:
[1] = Equilibrium solubility, shake-flask method; assay type: physicochemical; details: for solubility at 24 h: thermodynamic from solid, read-out: Solubility S2 × 10^6
Procedure: The standard shake-flask method was applied to determine solubility. The saturated solutions of the studied compound were obtained in glass screw-capped vials with the respective solvent, which were vigorously stirred in an air thermostat. The volumes of water, 1-octanol, n-hexane, and ethanol equaled 7, 2, 7, and 2 mL, respectively. […] After this time period, the saturated solutions stayed in the thermostat during the night, and then the non-dissolved substance was separated from the solution via centrifugation (Biofuge pico, Thermo Electron LED GmbH, Langenselbold, Germany) at the respective temperature for 20 min at 10,000 rpm. […] The experimental results were reported as an average of at least three replicated experiments with an accuracy of 2–4%.
The dissolution thermodynamic parameters on the standard state were determined using mole fraction unitary units. Recalculation of the molar solubility to the mole fraction was made as follows:(1) X2=M1S2/S2(M1−M2)+1000ρ, where S2 is the molar solubility of solute (M), M1 and M2 are the molar masses of solvent and solute, respectively, and ρ (g∙cm^−3) is the density of pure solvents. […] The density values of the pure solvents were used in calculations (Table S1).

[2] = Hypothetical transfer thermodynamic functions from solvation functions; assay type: physicochemical; details: 298.15 K; for TΔStr / ΔGtr / ΔHtr / ΔStr / ζHtr / ζTStr: hypothetical
Procedure: The impact of the specific interactions on the solvation process was estimated by analyzing the thermodynamic functions of the hypothetical transfer from n-hexane—an inert solvent interacting with the drugs only non-specifically—to water, 1-octanol, and ethanol. Besides this, the hypothetic transfer from water to 1-octanol is significant as a model of the drug penetrating through the lipophilic biological membranes. The transferring thermodynamic parameters listed in Table 4 were calculated as a difference (taking into account the sign of the thermodynamic function) between the respective functions in a solvent (1-octanol/water/ethanol) and in n-hexane and between 1-octanol and water.
The relationship between the specific and non-specific solvation thermodynamic contributions was disclosed using the εH and εS parameters calculated as follows:(20) εH=(ΔHspec/ΔHnon−spec)⋅100%where ΔHspec=ΔHtr(n−hexane→solvent)and ΔHnon−spec=ΔHsolv(n−hexane) (21) εS=(ΔSspec/ΔSnon−spec)⋅100%where ΔSspec=ΔStr(n−hexane→solvent)and ΔSnon−spec=ΔSsolv(n−hexane)

[3] = Apparent distribution coefficient, n-hexane/water, isothermal shake-flask; assay type: physicochemical; details: 298.15 K
Procedure: The well-known isothermal shake-flask method was applied for the determination of the apparent distribution coefficients in the 1-octanol/water ( Dappoct/w ) and n-hexane/water ( Dapphex/w ) systems. The mutually saturated solvents were prepared by mixing water and organic phases for 24 h and settling and separating from each other. The stock solutions of the drug were made from 1-octanol saturated with water for the 1-octanol/water distribution, and n-hexane saturated with water for the n-hexane/water system. An aliquot of the stock solution was placed in a glass vial together with an aliquot of the respective phase and mixed for 24 h at five temperatures, from 293.15 to 313.15 K (±0.1 K). The concentrations of the compounds were determined spectrophotometrically (Shimadzu 1800, Kyoto, Japan) in a UV region, with an accuracy of 2–4%. The reported experimental values represent the average of at least four replicate experiments.
The apparent distribution coefficients were calculated from the molar concentrations of the substance in the phases using the following equation:(10) DCorg/w=C2org/w/C2w/org where DCorg/w is the apparent distribution coefficient, C2org/w and C2w/org are the concentrations (M) of the compound after the distribution in the 1-octanol or n-hexane and water phases, respectively. The apparent distribution coefficients in the mole fraction scale ( DXorg/w ) were calculated by the equation:(11) DXorg/w=X2org/w/X2w/org where X2org/w and X2w/org are the concentrations (mole fract.) of the compound after distribution. The standard Gibbs energy of the transfer ( ΔGtr0) from water to the organic phase was calculated as follows:(12) ΔGtr0=−RT(lnDXorg/w)

[4] = cited from earlier work

Which “Solubility X2 × 10^4” value ([1]; 1-octanol, 293.15 K) does the source give for `CC(O)(CS(=O)(=O)c1ccc(F)cc1)C(=O)Nc1ccc(C#N)c(C(F)(F)F)c1` (stereo not drawn) [BCL, bicalutamide] here?
Its value is 2.23 mole fract.

And the “Solubility X2” value ([1]; 1-octanol, 298.15 K)?
The value was 2.57 × 10^−4 mole fract.

What about the “Solubility X2 × 10^4” value ([1]; 1-octanol, 298.15 K) of the same compound?
Its value is 2.57 mole fract.

What about the “Solubility X2 × 10^4” value ([1]; 1-octanol, 303.15 K) of the same compound?
The value was 3.00 mole fract.

And the “Solubility X2 × 10^4” value ([1]; 1-octanol, 308.15 K)?
Its value is 3.40 mole fract.

What about the “Solubility X2 × 10^4” value ([1]; 1-octanol, 313.15 K) of the same compound?
Its value is 3.95 mole fract.

And the “Solubility X2 × 10^3” value ([1]; ethanol, 293.15 K)?
Its value is 1.15 mole fract.

What about the “Solubility X2” value ([1]; ethanol, 298.15 K) of the same compound?
The value was 1.42 × 10^−3 mole fract.

And the “Solubility X2 × 10^3” value ([1]; ethanol, 298.15 K)?
Its value is 1.42 mole fract.

What about the “X2 298.15” value ([1]; ethanol, 298.15 K) of the same compound?
The value was 1.42 × 10^−3.

What about the “Solubility X2 × 10^3” value ([1]; ethanol, 303.15 K) of the same compound?
Its value is 1.74 mole fract.

What about the “Solubility X2 × 10^3” value ([1]; ethanol, 308.15 K) of the same compound?
Its value is 2.11 mole fract.

And the “Solubility X2 × 10^3” value ([1]; ethanol, 313.15 K)?
Its value is 2.43 mole fract.

What about the “solubility in ethanol as compared to 1-octanol” value ([1]; mole fraction, 298.15 K) of the same compound?
Its value is 5.5 fold.

What about the “Solubility X2 × 10^6” value ([1]; n-hexane, 293.15 K) of the same compound?
The value was 0.74 mole fract.

And the “Solubility X2” value ([1]; n-hexane, 298.15 K)?
The value was 1.07 × 10^−6 mole fract.

And the “Solubility X2 × 10^6” value ([1]; n-hexane, 298.15 K)?
Its value is 1.07 mole fract.

What about the “X2 298.15” value ([1]; n-hexane, 298.15 K) of the same compound?
Its value is 1.07 × 10^−6.

And the “Solubility X2 × 10^6” value ([1]; n-hexane, 303.15 K)?
The value was 1.50 mole fract.

And the “Solubility X2 × 10^6” value ([1]; n-hexane, 308.15 K)?
The value was 2.04 mole fract.

And the “Solubility X2 × 10^6” value ([1]; n-hexane, 313.15 K)?
The value was 2.76 mole fract.

What about the “Solubility X2 × 10^6” value ([1]; n-hexane, 318.15 K) of the same compound?
The value was 3.63 mole fract.

And the solubility at 24 h ([1]; n-hexane, organic solvent or mixture, n-hexane, 293.15 K)?
Its solubility at 24 h is 5.67 µM (≈ 2.44 µg/mL).

What about the solubility at 24 h ([1]; n-hexane, organic solvent or mixture, n-hexane, 298.15 K) of the same compound?
Its solubility at 24 h is 8.12 µM (≈ 3.49 µg/mL).

And the solubility at 24 h ([1]; n-hexane, organic solvent or mixture, n-hexane, 303.15 K)?
Its solubility at 24 h is 11.3 µM (≈ 4.88 µg/mL).

And the solubility at 24 h ([1]; n-hexane, organic solvent or mixture, n-hexane, 308.15 K)?
Its solubility at 24 h is 15.3 µM (≈ 6.59 µg/mL).

And the solubility at 24 h ([1]; n-hexane, organic solvent or mixture, n-hexane, 313.15 K)?
Its solubility at 24 h is 20.5 µM (≈ 8.83 µg/mL).

What about the solubility at 24 h ([1]; n-hexane, organic solvent or mixture, n-hexane, 318.15 K) of the same compound?
The solubility at 24 h was 26.8 µM (≈ 11.5 µg/mL).

What about the “Solubility X2 × 10^7” value ([1]; water, 293.15 K) of the same compound?
The value was 1.12 mole fract.

What about the “Solubility X2” value ([1]; water, 298.15 K) of the same compound?
The value was 1.47 × 10^−7 mole fract.

And the “Solubility X2 × 10^7” value ([1]; water, 298.15 K)?
The value was 1.47 mole fract.

What about the “X2 298.15” value ([1]; water, 298.15 K) of the same compound?
Its value is 1.47 × 10^−7.

And the “Solubility X2 × 10^7” value ([1]; water, 303.15 K)?
Its value is 1.90 mole fract.

And the “Solubility X2 × 10^7” value ([1]; water, 308.15 K)?
The value was 2.35 mole fract.

What about the “Solubility X2 × 10^7” value ([1]; water, 313.15 K) of the same compound?
The value was 2.97 mole fract.

And the solubility at 24 h ([1]; water, water, 293.15 K)?
The solubility at 24 h was 6.24 µM (≈ 2.69 µg/mL).

What about the solubility at 24 h ([1]; water, water, 298.15 K) of the same compound?
Its solubility at 24 h is 8.14 µM (≈ 3.5 µg/mL).

What about the solubility at 24 h ([1]; water, water, 303.15 K) of the same compound?
Its solubility at 24 h is 10.5 µM (≈ 4.53 µg/mL).

And the solubility at 24 h ([1]; water, water, 308.15 K)?
Its solubility at 24 h is 12.9 µM (≈ 5.57 µg/mL).

What about the solubility at 24 h ([1]; water, water, 313.15 K) of the same compound?
Its solubility at 24 h is 16.4 µM (≈ 7.05 µg/mL).

What about the εH ([2]; n-hexane → 1-octanol) of the same compound?
Its εH is 36.6%.

What about the εS ([2]; n-hexane → 1-octanol) of the same compound?
The εS was 30.2%.

And the TΔStr ([2]; n-hexane → 1-octanol)?
The TΔStr was −13.9 kJ⋅mol^−1.

And the ΔGtr ([2]; n-hexane → 1-octanol)?
Its ΔGtr is −13.7 kJ⋅mol^−1.

And the ΔHtr ([2]; n-hexane → 1-octanol)?
The ΔHtr was −27.6 kJ⋅mol^−1.

What about the ΔStr ([2]; n-hexane → 1-octanol) of the same compound?
Its ΔStr is −46.6 J⋅mol^−1⋅K^−1.

What about the ζHtr ([2]; n-hexane → 1-octanol) of the same compound?
The ζHtr was 66.5%.

What about the ζTStr ([2]; n-hexane → 1-octanol) of the same compound?
The ζTStr was 33.5%.

What about the εS ([2]; n-hexane → ethanol) of the same compound?
Its εS is 5.0%.

What about the TΔStr ([2]; n-hexane → ethanol) of the same compound?
Its TΔStr is −2.3 kJ⋅mol^−1.

What about the ΔGtr ([2]; n-hexane → ethanol) of the same compound?
The ΔGtr was −18 kJ⋅mol^−1.

And the ΔHtr ([2]; n-hexane → ethanol)?
Its ΔHtr is −20.3 kJ⋅mol^−1.

What about the ΔStr ([2]; n-hexane → ethanol) of the same compound?
Its ΔStr is −7.7 J⋅mol^−1⋅K^−1.

And the ζHtr ([2]; n-hexane → ethanol)?
Its ζHtr is 89.8%.

What about the ζTStr ([2]; n-hexane → ethanol) of the same compound?
Its ζTStr is 10.2%.

What about the εH ([2]; n-hexane → water) of the same compound?
Its εH is 16.4%.

What about the εS ([2]; n-hexane → water) of the same compound?
The εS was 37.4%.

And the TΔStr ([2]; n-hexane → water)?
Its TΔStr is −17.2 kJ⋅mol^−1.

What about the ΔGtr ([2]; n-hexane → water) of the same compound?
Its ΔGtr is 4.8 kJ⋅mol^−1.

What about the ΔHtr ([2]; n-hexane → water) of the same compound?
The ΔHtr was −12.4 kJ⋅mol^−1.

And the ΔStr ([2]; n-hexane → water)?
Its ΔStr is −57.7 J⋅mol^−1⋅K^−1.

What about the ζHtr ([2]; n-hexane → water) of the same compound?
The ζHtr was 41.9%.

What about the ζTStr ([2]; n-hexane → water) of the same compound?
The ζTStr was 58.1%.

And the TΔStr ([2]; water → 1-octanol)?
Its TΔStr is 3.3 kJ⋅mol^−1.

And the ΔGtr ([2]; water → 1-octanol)?
The ΔGtr was −18.5 kJ⋅mol^−1.

And the ΔHtr ([2]; water → 1-octanol)?
Its ΔHtr is −15.2 kJ⋅mol^−1.

What about the ΔStr ([2]; water → 1-octanol) of the same compound?
The ΔStr was 11.1 J⋅mol^−1⋅K^−1.

What about the ζHtr ([2]; water → 1-octanol) of the same compound?
Its ζHtr is 82.2%.

And the ζTStr ([2]; water → 1-octanol)?
Its ζTStr is 17.8%.

What about the “experimental over calculated distribution coefficient” value ([3]; n-hexane/water) of the same compound?
The value was 1.9 fold.

What about the “DChex/w, experimental apparent distribution coefficient” value ([3]; n-hexane/water, molarity scale) of the same compound?
The value was 1.88 ± 0.04.

And the “DC/calchex/w, calculated distribution coefficient” value ([3]; ratio of molar solubilities in n-hexane and water)?
Its value is 1.00.

What about the solubility ([4]; aqueous) of the same compound?
The solubility was “less than 5 mg∙L^−1”.

And the aqueous solubility ([4]; ref 10)?
Its aqueous solubility is “approximately 3.7 μg·mL^−1”.

What about the aqueous solubility ([4]; ref 11) of the same compound?
Its aqueous solubility is 8.85 µg/mL (≈ 20.6 µM).
